{"source": "ChEMBL document CHEMBL1155567", "about": "“Three new toxic norditerpenoid alkaloids from the low larkspur Delphinium nuttallianum” (J Nat Prod, 2000)", "assay": "Toxicity in iv dosed 24 hrs fasted Swiss-Webster mouse", "type": "organism-based", "conditions": "in vivo", "data": [{"smiles": "CCN1C[C@]2(COC(=O)c3ccccc3N3C(=O)C[C@H](C)C3=O)CC[C@H](OC)[C@]34C5C[C@@H]6[C@@H](OC(C)=O)C[C@@](O)(C5[C@H]6OC)[C@@](O)([C@H]13)[C@@H](OC)C24", "note": "(stereo partly drawn) [GEYERLINE]", "values": [{"measurement": "LD50", "result": 6.2, "unit": "mg/kg"}]}, {"smiles": "CCN1C[C@]2(COC(=O)c3ccccc3N3C(=O)C[C@H](C)C3=O)CC[C@H](OC)[C@]34C5C[C@@H]6[C@@H](OC(C)=O)C[C@@](O)(C5[C@H]6O)[C@@](O)([C@H]13)[C@@H](OC)C24", "note": "(stereo partly drawn)", "values": [{"measurement": "LD50", "result": 5.7, "unit": "mg/kg"}]}, {"smiles": "CCN1C[C@]2(COC(=O)c3ccccc3N3C(=O)C[C@H](C)C3=O)CC[C@H](OC)[C@]34C5C[C@@H]6[C@@H](OC(C)=O)C[C@@](O)(C5[C@H]6OC(C)=O)[C@@](O)([C@H]13)[C@@H](OC)C24", "note": "(stereo partly drawn)", "values": [{"measurement": "LD50", "result": 3.3, "unit": "mg/kg"}]}]}
